Our source for the Ki values is patent publication US7550469B2, “Heterocyclic amide derivatives and their use as dopamine D3 receptor ligands” (Aventis Pharmaceuticals Inc., priority 2001, dated 2009).

The target in the assay is T1, cloned human dopamine D3 receptors (Homo sapiens, UniProt P35462).
T1 construct: expressed in transfected cells; membrane homogenate
Description: [N-Methyl-3H]Spiroperidol binding to cloned human dopamine D3 receptors (Protocol 1). The procedure, abridged: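 Membranes from CHO cells stably expressing cloned human D3 receptor were used for [N-methyl-3H]spiroperidol (60-90 Ci/mmol) binding. Assay buffer was 0.05 M Tris HCl pH 7.7 with 120 mM NaCl, 5 mM KCl, 2 mM CaCl2 and 1 mM MgCl2, optionally 0.1% ascorbic acid; total ligand concentration calculated from added CPM.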

Where [1] appears, read: the 14th table, read-out: D3 Ki.
[2] abbreviates: the 13th table, unit inferred, read-out: D3Ki.
Setting [3] is: the 23rd table, read-out: D3 Ki.
The mark [4] stands for this setting: the 17th table, read-out: D3 Ki.
Where [5] appears, read: the 24th table, read-out: D3 Ki.
[6] abbreviates: the 16th table, read-out: D3 Ki.
[7] abbreviates: the 22nd table, read-out: D3 Ki.
Where [8] appears, read: the 19th table, read-out: D3 Ki.
Where [9] appears, read: the 15th table, read-out: D3 Ki.

Where two headings read alike, the source gives them in different places.

T1 sequence (P35462 whole entry): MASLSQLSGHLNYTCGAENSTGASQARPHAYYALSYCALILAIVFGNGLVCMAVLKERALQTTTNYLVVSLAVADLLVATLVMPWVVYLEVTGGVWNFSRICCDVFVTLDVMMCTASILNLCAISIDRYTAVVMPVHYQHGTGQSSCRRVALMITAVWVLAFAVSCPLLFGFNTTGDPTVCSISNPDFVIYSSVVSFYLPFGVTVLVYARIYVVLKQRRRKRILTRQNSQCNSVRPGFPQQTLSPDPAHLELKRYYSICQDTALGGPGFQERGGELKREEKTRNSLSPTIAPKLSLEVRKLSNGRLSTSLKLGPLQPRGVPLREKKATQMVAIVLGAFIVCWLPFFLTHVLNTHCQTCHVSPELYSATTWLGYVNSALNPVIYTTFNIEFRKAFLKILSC

Consider `O=C(N[C@H](CO)CCCN1CCN(c2csc3cc(C(F)(F)F)ccc23)CC1)c1ccc2ccccc2c1` [compound 815697], for which the Ki is, setting by setting: (Table 2, read-out: D3K1) 294 nM; (read-out: D3K1) 294 nM; under setting [1], 294 nM. Consider `COc1cccc(CC(=O)NCCCCN2CCCN(c3csc4cc(F)ccc34)CC2)c1` [S982510], for which the Ki under setting [2] stood at 5.9 nM. `O=C(NC/C=C/CN1CCN(c2csc3cc(C(F)(F)F)ccc23)CC1)C1CCC1` [compound 827711]: the Ki (read-out: D3K1) was 230 nM. Still for that read-out and setting: as for `O=C(NCCCCN1CCN(c2c(Cl)sc3cc(F)ccc23)CC1)c1ccccc1Br` [compound 815070], the figure is 34.4 nM. As for `FC(F)(F)c1ccc2c(N3CCN(CC4CC4CNCCCN4CCCCC4)CC3)csc2c1` (racemic) [compound 832659], the Ki under setting [3] came to 28.3 nM. In the case of `O=C(NCC1CC1CN1CCCN(c2csc3cc(F)ccc23)CC1)c1ccc(C(F)(F)F)cc1` (racemic) [compound 830404], the Ki under setting [4] came to 51.9 nM. For the compound `O=C(NCCCCCN1CCC(c2noc3ccsc23)CC1)c1ccc2ccccc2c1` [compound 816197], under setting [2], the Ki stood at 116 nM. The same measure, in the same setting: as for `O=C(NCCCCCN1CCC(c2noc3ccsc23)CC1)c1ccccc1[N+](=O)[O-]` [compound 816207], the figure is 182 nM. Regarding `COc1ccc(/C=C/C(=O)NC/C=C\CN2CCN(c3csc4cc(C(F)(F)F)ccc34)CC2)cc1` [compound 827735], where the note is “Table 2, read-out: D3K1”, the Ki was found to be 24.4 nM. `O=S(=O)(NC[C@@H]1C[C@H]1CN1CCN(c2csc3cc(C(F)(F)F)ccc23)CC1)c1ccc(F)cc1` (racemic) [compound 831495, 4-Fluoro-N-{2R-[4-(6-trifluoromethyl-benzo[b]thiophen-3-yl)-piperazin-1-ylmenthyl]-1R-cyclopropylmethyl}-benzenesulfonamide]: the Ki under setting [5] was 35.1 nM. Turning to `O=C(NCCCCCCN1CCN(c2csc3cc(C(F)(F)F)ccc23)CC1)c1cc2ccccc2s1` [compound 826754], the Ki is, setting by setting: (read-out: D3K1) 3.2 nM; under setting [1], 3.2 nM. As to `N#Cc1cccc(C(=O)NC/C=C/CN2CCN(c3csc4cc(C(F)(F)F)ccc34)CC2)c1` [compound 827721], the Ki (read-out: D3K1) is 91 nM. Regarding `CC(C)(C)OC(=O)Cn1c(C(=O)NCCCCN2CCCN(c3csc4cc(F)ccc34)CC2)cc2ccccc21` [compound 817271], the Ki (Table 2, read-out: D3K1) was 326 nM and the Ki under setting [6] came to 326 nM. Turning to `CCn1cc(C(=O)NC(CO)CCCN2CCN(c3csc4cc(C(F)(F)F)ccc34)CC2)c(=O)c2ccc(C)nc21` (stereo not drawn) [compound 815704], the Ki (Table 2, read-out: D3K1) turned out to be 137 nM; the Ki (read-out: D3K1) amounted to 137 nM; the Ki under setting [1] amounted to 137 nM. For `O=C(NCCCCN1CCN(c2csc3cc(C(F)(F)F)ccc23)CC1)c1ccccc1C(F)(F)F` [compound 815553], for the setting “read-out: D3K1”, the Ki worked out at 41 nM.

For the compound `O=C(NCCCCN1CCCN(c2csc3cc(F)ccc23)CC1)c1ccc2ncccc2c1` [compound 817262], the Ki by setting is: (Table 2, read-out: D3K1) 1.89 nM; under setting [6], 1.89 nM. On to `COc1cccc(C(=O)NCCCCN2CCCN(c3csc4cc(F)ccc34)CC2)c1` [compound 822197], for which the Ki under setting [2] is 6.5 nM. On to `Cc1oc(-c2ccccc2)cc1C(=O)NCCCCN1CCCN(c2csc3cc(F)ccc23)CC1` [S981839], for which the Ki under setting [2] was determined as 1.4 nM.

Consider `FC(F)(F)Oc1cccc(CNCC2CC2CN2CCN(c3csc4cc(C(F)(F)F)ccc34)CC2)c1` (racemic) [compound 832181], for which the Ki under setting [3] came to 16 nM. Take `O=C(NC/C=C\CN1CCN(c2csc3cc(C(F)(F)F)ccc23)CC1)c1cccc(Cl)c1` [compound 826340]: the Ki (read-out: D3K1) was determined as 73 nM. As to `Cc1ccccc1C(=O)NCCCCN1CCN(c2n[nH]c3ccsc23)CC1` [compound 825161], under setting [7], the Ki worked out at 244 nM.

As for `O=C(NCC(CO)CCN1CCN(c2csc3cc(C(F)(F)F)ccc23)CC1)c1cccs1` (stereo not drawn) [818926ES], for the setting “Table 2, read-out: D3K1”, the Ki came to 206 nM. `O=C(/C=C/c1ccccc1)NCCCCN1CCCN(c2csc3cc(F)ccc23)CC1` [S981850]: under setting [2], the Ki turned out to be 0.489 nM. With `O=C(NCCCCCN1CCN(c2csc3cc(F)ccc23)CC1)c1cc2ccccc2s1` [compound 826783], the Ki under setting [1] amounted to 2.7 nM. Regarding `O=C(Nc1cccc(CN2CCN(c3csc4cc(F)ccc34)CC2)c1)c1ccc(OC(F)(F)F)cc1` [compound 822162], the Ki under setting [8] stood at 380 nM.

`O=C(NCCCCN1C2CCC1CC(c1noc3ccccc13)C2)c1ccc(F)cc1` (stereo not drawn) [compound 816520]: the Ki under setting [9] stood at 292 nM. With `O=C(NCCCCCN1CCN(c2csc3cc(F)ccc23)CC1)c1cccc(Cl)c1` [compound 826775], the Ki under setting [1] was determined as 6.24 nM. Take `O=C(Nc1cccc(CN2CCN(c3csc4cc(F)ccc34)CC2)c1)c1ccc2[nH]nnc2c1` [compound 825656]: under setting [8], the Ki was 33 nM.

For `O=C(NCCCCN1CCN(c2n[nH]c3ccsc23)CC1)c1ccc(F)c(F)c1` [compound 825163], the Ki under setting [7] amounted to 221 nM. With `O=C(Cc1ccccc1)NC[C@@H]1CC1CN1CCCN(c2csc3cc(F)ccc23)CC1` (stereo partly drawn) [compound 831203], under setting [4], the Ki turned out to be 3.21 nM. As for `Cc1ccc(C(=O)N[C@H](CO)CCCN2CCN(c3csc4cc(C(F)(F)F)ccc34)CC2)cc1` [compound 815695], the Ki (Table 2, read-out: D3K1) turned out to be 198 nM; the Ki (read-out: D3K1) was 198 nM; the Ki under setting [1] is 198 nM. Consider `O=C(NC/C=C\CN1CCN(c2csc3cc(C(F)(F)F)ccc23)CC1)c1ccc(F)cc1` [compound 826341], for which, where the note is “read-out: D3K1”, the Ki turned out to be 11 nM. Consider `O=C(c1ccc(F)cc1)N(Cc1ccccc1)CC1CC1CN1CCCN(c2csc3cc(F)ccc23)CC1` (racemic) [compound 830393], for which, under setting [4], the Ki was found to be 21.8 nM. For `O=C(NCCCCCCN1CCN(c2csc3cc(C(F)(F)F)ccc23)CC1)c1ccc2[nH]ccc2c1` [compound 816316], the Ki reads like this: (Table 2, read-out: D3K1) 2.7 nM; (read-out: D3K1) 2.7 nM; under setting [1], 2.7 nM. As for `Cc1ccc2cc(C(=O)NCCCCN3CCCN(c4csc5cc(F)ccc45)CC3)oc2c1` [compound 827130], the Ki (Table 2, read-out: D3K1) stood at 15.4 nM and the Ki under setting [6] stood at 15.4 nM. As for `O=C(NCCCCN1CCN(c2noc3ccsc23)CC1)c1cnc2ccccc2n1` [compound 829688], under setting [7], the Ki is 673 nM. Take `O=C(NCCCCN1CCN(c2c(-c3ccccc3)sc3cc(F)ccc23)CC1)c1ccc(F)cc1` [compound 815883]: the Ki (Table 2, read-out: D3K1) is 339 nM. As to `O=C(NC/C=C/CN1CCN(c2csc3cc(C(F)(F)F)ccc23)CC1)c1cc2ccccc2[nH]1` [compound 827742], the Ki (Table 2, read-out: D3K1) was 21.3 nM. `O=C(NC/C=C\CN1CCN(c2csc3cc(C(F)(F)F)ccc23)CC1)C1CCCC1` [compound 826334]: the Ki (read-out: D3K1) amounted to 21 nM. As for `CCC1CCCC1NC[C@@H]1C[C@H]1CN1CCN(c2csc3cc(C(F)(F)F)ccc23)CC1` (mixture of isomers) [compound 832278], the Ki under setting [3] came to 19 nM. `C[C@@H]1CN(c2csc3cc(F)ccc23)C[C@H](C)N1CCCCNC(=O)c1ccc(C(F)(F)F)cc1` [compound 826946]: the Ki (the 21st table, read-out: D3 Ki) came out at 35.9 nM. Consider `O=C(NCCC(CO)CN1CCN(c2csc3cc(C(F)(F)F)ccc23)CC1)c1ccc2[nH]ccc2c1` (stereo not drawn) [818620ES], for which the Ki (Table 2, read-out: D3K1) was 246 nM. For `O=C(NCc1sccc1CN1CCN(c2csc3cc(F)ccc23)CC1)c1ccc(-c2ccccn2)s1` [818320G], the Ki (the 18th table, read-out: D3 Ki) came out at 11.2 nM. Consider `O=C(NCCCCN1CCN(c2noc3ccsc23)CC1)c1ccc(-c2ccccc2)cc1` [compound 829680], for which the Ki under setting [7] came out at 14.7 nM.

On to `O=C(NCCCCN1CCN(c2c(Cl)sc3cc(F)ccc23)CC1)c1cccs1` [compound 815058], for which, under “read-out: D3K1”, the Ki amounted to 4.3 nM. Consider `O=C(NCCCCCN1CCN(c2csc3cc(C(F)(F)F)ccc23)CC1)c1cc2ccccc2[nH]1` [compound 826794], for which the Ki (read-out: D3K1) was 11.1 nM and the Ki under setting [1] is 11.1 nM. On to `O=C(NCCCCN1CCCN(c2csc3cc(F)ccc23)CC1)c1cc2cc(OC(F)(F)F)ccc2o1` [compound 827127], for which the Ki runs as follows: (Table 2, read-out: D3K1) 74.3 nM; under setting [6], 74.3 nM.

As for `O=C(NCCCCN1CCCN(c2csc3cc(C(F)(F)F)ccc23)CC1)c1ccc2nonc2c1` [S980664], under setting [2], the Ki is 6.1 nM. On to `O=C(NCCCCCCN1CCN(c2csc3cc(C(F)(F)F)ccc23)CC1)c1cccc2[nH]ccc12` [compound 826741], for which the Ki was determined as 9.8 nM (read-out: D3K1) and 9.8 nM under setting [1].

Regarding `O=C(NCCCCN1CCCN(c2csc3cc(C(F)(F)F)ccc23)CC1)c1ccc(C(F)(F)F)cc1` [S980644], the Ki under setting [2] worked out at 570 nM. On to `O=C(NCCCCCCN1CCN(c2csc3cc(C(F)(F)F)ccc23)CC1)c1cccs1` [compound 826746], for which the Ki is, setting by setting: (read-out: D3K1) 0.8 nM; under setting [1], 0.8 nM.

Regarding `FC(F)(F)c1ccc2c(N3CCN(C[C@@H]4C[C@H]4CNCCCn4ccnc4)CC3)csc2c1` [compound 833257, (3-imidazol-1-yl-propyl)-{(1R,2R)-2-[4-(6-trifluoromethyl-benzo[b]thiophen-3-yl)-piperazin-1-ylmethyl]-cyclopropylmethyl}-amine], the Ki under setting [3] was 2.62 nM.

Take `O=C(Nc1ccc(CN2CCN(c3csc4cc(F)ccc34)CC2)cc1)c1ccc(-c2ccccc2)cc1` [compound 822210]: the Ki under setting [8] turned out to be 39.5 nM. Turning to `O=C(NCC(CO)CCN1CCN(c2csc3cc(C(F)(F)F)ccc23)CC1)c1cc2ccccc2[nH]1` (stereo not drawn) [818930ES], the Ki (Table 2, read-out: D3K1) was 79.3 nM.

With `O=C(NCCCCN1CCN(c2noc3ccsc23)CC1)c1cccc(C(F)(F)F)c1` [compound 829673], under setting [7], the Ki amounted to 515 nM. For the compound `CC(C)(C)c1ccc(S(=O)(=O)NCC2CC2CN2CCC(c3noc4ccsc34)CC2)cc1` (stereo not drawn) [compound 831512], under setting [5], the Ki was determined as 53.9 nM. In the case of `CCNc1ccccc1C(=O)NCCCCN1CCCN(c2csc3cc(F)ccc23)CC1` [compound 817267], the Ki reads like this: (Table 2, read-out: D3K1) 3.03 nM; under setting [6], 3.03 nM. Turning to `O=C(Cc1ccccc1)NCCCCN1C2CCC1CC(c1noc3cc(F)ccc13)C2` (stereo not drawn) [compound 816327], under setting [9], the Ki was found to be 392 nM.
